Read-outs that look alike come from different tables or passages of the source.
How the values were obtained:
[1] = system: wild type mice, DOX-induced toxicity; experiment: In vivo echocardiography in DOX-treated mice
Description: (§1) Mice were handled in accordance with institutional guidelines for animal care. Experiments were approved by the institutional Animal Care Committees and the investigation conforms with the Guide for the Care and Use of Laboratory Animals published by the US National Institutes of Health (NIH Publication N. 85-23, revised 1985). Doxorubicin treatment was a single ip injection of 5 or 15 mg/kg as previously described by Aries et al.^6 ALZET micro-osmotic pumps (Model 1002, 0.25 μl/hr, 14 days) were filled with DMSO, Ang II (0.5 μgKg/day) LCB2122 (2.0 or 2.8 μg/Kg/day) diluted in normal saline and inserted subcutaneously in mice for two weeks. M-mode echocardiography was performed using Visual-Sonics VEVO 2100 system and 30-MHz linear array transducer, on lightly anesthetized mice using […], 80 ml/min of 100% oxygen, as described by Aries et al. and echocardiographic indices were calculated as described by Yang et al.^17 Heart failure was defined as EF<45%.

[2] = system: HepG2 human cancer cell line; experiment: Cell Titer Glo growth inhibition, DOX +/- LCB2122; format: cell-based
Excerpt: Indeed, the IC50 of DOX in HepG2 human cancer cell line was identical in the absence or presence of LCB2122. FIG. 8 is a plot representing the percent growth inhibition as measured by Cell Titer Glo assays done on HepG2 cells treated with varying concentrations of DOX+/−LCB-2122 ([…]).

primary cardiomyocytes [3] = experiment: TUNEL assay, Imatinib-induced apoptosis in primary cardiomyocytes; format: cell-based; settings: Cardiomyocyte, 6 hours, FIG. 6, read-out: EC50, prevention of apoptosis induced by Imatinib
Description: (§2) Primary cardiomyocyte monologues covered by serum free media (SF) were treated with DMSO (vehicle), Doxorubicin (DOX) (300 nM), Imatinib (Imat) (5 μM), and/or LCB2122 at varying concentrations (0.1, 0.5, 1.5 at 10 μM) diluted in SF for 3, 6, 18 or 24 hours. The TUNEL assay (Terminal Deoxynucleotidyltransferase mediated dUTP End Labeling) was utilized to detect apoptotic nuclei using an Apop Tag Red in Situ Apoptosis Detection Kit (Millipore, Temecula, Calif.). A Zeis fluorescent microscope was used for image acquisition. Cell counting was done using the Imager® Software.

[4] = system: atrial natriuretic factor (ANF); experiment: ANF ELISA on blood plasma of WT and AT1R mice; format: in vivo; settings: 2.0 μg/Kg/day, 4 weeks, FIG. 13b
Description: FIG. 13b) quantification of an ANF ELISA assay done on blood plasma samples from vehicle and LCB2122 (2.0 μg/Kg/day, 4 weeks) treated WT and AT1R mice ventricles. Once again, the increase in ANF plasma levels was attenuated in the LCB2122 treated AT1R mice.

[5] = system: atrial natriuretic factor (ANF); experiment: ANF transcript QPCR on ventricles of WT and AT1R mice; format: in vivo; settings: 2.0 μg/Kg/day, 4 weeks, FIG. 13a
Excerpt: The massive ANF upregulation seen in AT1R mice usually indicative of cardiac stress is attenuated in LCB2122 treated AT1R mice.

primary cardiomyocytes [6] = experiment: TUNEL assay, primary cardiomyocytes treated with 3 μM Doxorubicin for 6 hours (Table 1); format: cell-based; settings: Cardiomyocyte
Description: as §2
The cardioprotective profile of LCB2122, LC2165, LCB2191 and LCB2177 were also investigated. As above, primary cardiomyocytes were treated with 3 μM of Doxorubicin for 6 hours alone or with the above compounds of the invention. The TUNEL assay was utilized to detect apoptotic nuclei. […] LCB2165, LCB2191 and LCB2177 were also active with IC50's of 5 μM.

AT1R mice = experiment: Echocardiography in AT1R transgenic (heart failure model) and wild-type mice; format: in vivo
Description: as §1
Transgenic mice overexpressing the human angiotensin II type 1 receptor^7 (AT1R) under the control of the mouse α-myosin heavy chain were generated. These mice are a model of human HF. Cardiomyocyte specific overexpression induced in basal conditions overtime, morphologic changes that mimic those observed during the development of cardiac hypertrophy in humans. In order words, these mice develop age-dependent HF.
All AT1R mice had EF % less than 40%, similar to HF patients in human. […] LCB2122 treated AT1R mice (2.0 μg/kg/day for 4 weeks) had their cardiac functions improved as opposed to untreated mice. […] The data shown are the individual values of each mouse at weeks 0 and 4. All WT mice had normal EF % independent of LCB2122 treatment throughout the study. All AT1R mice were in HF prior to any treatment.

heart cardiomyocytes = experiment: TUNEL assay on heart sections of DOX-treated mice; format: in vivo; settings: after 2 weeks, FIG. 11
Description: as §1
After these 2 weeks, heart cardiomyocytes were also tested by TUNEL assay (on heart sections).

primary cardiomyocytes [7] = experiment: TUNEL assay, DOX-induced apoptosis in primary cardiomyocyte monolayers; format: cell-based
Description: as §2

cardiomyocytes = experiment: Sarcomeric alpha-actinin immunofluorescence on cardiomyocytes; format: cell-based; settings: 5 uM, six hours, FIG. 7
Description: Immunofluorescence were performed on cardiomyocytes as previously described,^16 using a sarcomeric alpha-Actinin antibody (1/500).
FIG. 7 is a micrograph showing α-actinin immunostaining (straight lines) of 2% PFA-fixed cardiomyocytes treated with a) vehicle (DMSO) or b) LCB2122 (5 uM) for six hours. […] White spots mark the nuclei.

COc1cccc2c1C(=O)c1c(O)c3c(c(O)c1C2=O)C[C@@](O)(C(=O)CO)C[C@@H]3O[C@H]1C[C@H](N)[C@H](O)[C@H](C)O1 [DOX, Doxorubicin, reference compound]
ejection fraction (EF, %) after DOX alone ([1]; mice, two weeks after DOX ip injection, FIG. 9): decreased significantly
ventricular wall thickness after DOX alone ([1]; wild type mice, DOX (5 μg/kg) as printed): induced also a loss of ventricular wall thickness

CCOP(=O)(OCC)OC[C@H]1O[C@@H](n2cnc3c(N)nc(Cl)nc32)[C@](C)(CO)[C@@H]1O [LCB2122, ((2R,3S,4R,5R)-5-(6-amino-2-chloro-9H-purin-9-yl)-3-hydroxy-4-(hydroxymethyl)-4-methyltetrahydrofuran-2-yl)methyl diethyl phosphate]
effect on antiproliferative effect of DOX ([2]; HepG2, DOX +/- LCB2122, FIG. 8): did not affect the antiproliferative effect of DOX
effect on HepG2 sensitivity to DOX ([2]; up to 4 μM LCB2122): no effect on HepG2 sensitivity to DOX
EC50 (primary cardiomyocytes [3]): 5 µM
ejection fraction (EF, %) after DOX ([1]; DOX ip, LCB2122 micropump for two weeks, FIG. 9): protected against DOX-induced toxicity
left ventricle wall thickness after DOX ([1]; wild type mice, DOX, FIG. 10): protected against this DOX-induced wall thickness
increase in ANF plasma levels [4]: attenuated
ANF transcript upregulation in ventricles [5]: attenuated
IC50 (primary cardiomyocytes [6]; 6 h): 1 µM
cardiac function (ejection fraction) in AT1R mice (AT1R mice; 2.0 μg/kg per day for 4 weeks, FIG. 12): significant improvement of the cardiac function
cardiac function of normal (WT) mice (AT1R mice; 2.0 μg/kg/day for 4 weeks): did not alter cardiac function of normal mice
share of treated AT1R mice with EF % equal and above 40% (AT1R mice; after four weeks of LCB2122): 55%
apoptotic cardiomyocytes (TUNEL, heart sections) (heart cardiomyocytes): significant decrease of apoptotic cardiomyocytes
EC50 (primary cardiomyocytes [7]; Cardiomyocyte, DOX 300 nM, TUNEL, FIG. 4, read-out: EC50, prevention of DOX-induced apoptotic cell death): 0.5 µM
prevention of DOX-induced apoptotic cell death (primary cardiomyocytes [7]; DOX 300 nM, 6 hours, FIGS. 3 and 4): completely prevented DOX-induced apoptotic cell death
DOX-induced apoptosis over time (primary cardiomyocytes [7]; DOX 300 nM, at 3, 6 or 24 hours): blocked
induction of apoptosis by the compound alone (primary cardiomyocytes [7]; time course, any time points, FIG. 5): did not induce apoptosis
cytoskeletal organization and cell size (α-actinin immunostaining) (cardiomyocytes): does not alter cytoskeletal organization or cell size

CCOP(=O)(OCC)OC[C@H]1O[C@@H](n2cnc3c(N)nc(Cl)nc32)[C@](C)(COCc2ccccc2)[C@@H]1O [LCB2165, ((2R,3S,4R,5R)-5-(6-amino-2-chloro-9H-purin-9-yl)-4-((benzyloxy)methyl)-3-hydroxy-4-methyltetrahydrofuran-2-yl)methyl diethyl phosphate]
IC50 (primary cardiomyocytes [6]; 6 h): 5 µM

CC(C)OP(=O)(OC[C@H]1O[C@@H](n2cnc3c(N)nc(Cl)nc32)[C@](C)(CO)[C@@H]1O)OC(C)C [LCB2177, ((2R,3S,4R,5R)-5-(6-amino-2-chloro-9H-purin-9-yl)-3-hydroxy-4-(hydroxymethyl)-4-methyltetrahydrofuran-2-yl)methyl diisopropyl phosphate]
IC50 (primary cardiomyocytes [6]; 3 μM Doxorubicin, 6 hours, TUNEL apoptotic nuclei, read-out: IC50): 5 µM

C#CCOc1ccc(C(=O)c2ccc(C(=O)OC[C@]3(C)[C@H](O)[C@@H](COP(=O)(OCC)OCC)O[C@H]3n3cnc4c(N)nc(Cl)nc43)cc2)cc1 [LCB2191, ((2R,3R,4S,5R)-2-(6-amino-2-chloro-9H-purin-9-yl)-5-(((diethoxyphosphoryl)oxy)methyl)-4-hydroxy-3-methyltetrahydrofuran-3-yl)methyl 4-(4-(prop-2-yn-1-yloxy)benzoyl)benzoate]
IC50 (primary cardiomyocytes [6]; 6 h): 5 µM

From patent US11434255B2, “Nucleoside and nucleotide analogues bearing a quaternary all-carbon stereogenic center at the 2′ position and methods of use as a cardioprotective agent” (LCB PHARMA INC., priority 2016, dated 2022)
